Assay results reported in patent publication US20240383874A1, “BENZENE RING DERIVATIVE, AND COMPOSITION AND PHARMACEUTICAL USE THEREOF” (Xizang Haisco Pharmaceutical Co., Ltd., priority 2020, published 2024).
Structures can show the parent of a compound that is named as a salt.

Experiments:
22RV1 cells = assay: Experiment 2 on inhibiting 22RV1 cell proliferation (7 days, CellTiter-Glo); format: cell-based; conditions: Homo sapiens, 22Rv1, 168 h, 1% css-FBS phenol red-free medium, incubated with compound 7 days, read-out: IC50 values on proliferation inhibition of 22RV1 cells
How it was run: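 22RV1 cells plated at 2000/well in phenol red-free medium with 1% css-FBS and treated next day with compound for 7 days at 37 °C. Viability read by CellTiter-Glo luminescence relative to DMSO vehicle; IC50 from dose-response fit.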

[1] = Pharmacokinetic test in rats; format: in vivo; conditions: rat, po; male SD rats, single dose i.g. 5 mg/kg, plasma, 0-24 h
Description: Test objective: in this test, a single dose of test compounds was administered to SD rats intragastrically, and the concentrations of the test compounds in plasma of the rats were measured to evaluate pharmacokinetic characteristics of the test compounds in the rats.
Test animals: male SD rats, 200-250 g, 6-8 weeks old, 3 rats/compound, purchased from Chengdu Dossy Experimental Animals Co., Ltd.
Test method: on the day of the test, 3 SD rats were randomly grouped according to their body weights. The animals were fasted with water available for 12 to 14 hours one day before the administration of a test compound, and were fed 4 hours after the administration.
Sampling: before and after the administration, 0.1 mL of blood was taken from the orbits of the rats under isoflurane anesthesia, and placed in an EDTAK2 centrifuge tube. Centrifugation was carried out at 5000 rpm at 4C for […], and the plasma was collected.
Time points for plasma collection in G1 group: 0, 5 min, 15 min, 30 min, 1 h, 2 h, 4 h, 6 h, 8 h, and 24 h.
Before analysis and detection, all samples were stored at −80° C. The samples were analyzed quantitatively by LC-MS/MS.

Structure (SMILES)	IC50 (22RV1 cells) [nM]	AUC(0-t) [1] [ng·h/mL]
CC(C)(c1ccc(OCc2ccnc(N3CCC(CN4CCC(C5CCN(c6ccc7c(c6)C(=O)N(C6CCC(=O)NC6=O)C7=O)CC5)CC4)CC3)n2)cc1)c1cc(Cl)cc(C#N)c1 (centres unmarked) [Compound 37 trifluoroacetate, 3-chloro-5-(2-(4-((2-(4-((1′-(2-(2,6-dioxopiperidin-3-yl)-1,3-dioxoisoindolin-5-yl)-[4,4′-bipiperidin]-1-yl)methyl)piperidin-1-yl)pyrimidin-4-yl)methoxy)phenyl)propan-2-yl)benzonitrile]	507	867 ± 66
CC(C)(c1ccc(OCc2ccnc(N3CCC4(CC3)CN(CC3CCN(c5ccc6c(c5)C(=O)N(C5CCC(=O)NC5=O)C6=O)CC3)C4)n2)cc1)c1cc(Cl)cc(C#N)c1 (centres unmarked) [Compound 45, 3-chloro-5-(2-(4-((2-(2-((1-(2-(2,6-dioxopiperidin-3-yl)-1,3-dioxoisoindolin-5-yl)piperidin-4-yl)methyl)-2,7-diazaspiro[3.5]nonan-7-yl)pyrimidin-4-yl)methoxy)phenyl)propan-2-yl)benzonitrile]	–	452 ± 137
CC(C)(c1ccc(OCc2ccnc(N3CCC(CN4CCC(C5CCN(c6cc7c(cc6F)C(=O)N(C6CCC(=O)NC6=O)C7=O)CC5)CC4)CC3)n2)cc1)c1cc(Cl)cc(C#N)c1 (centres unmarked) [Compound 78, 3-chloro-5-(2-(4-((2-(4-((1′-(2-(2,6-dioxopiperidin-3-yl)-6-fluoro-1,3-dioxoisoindolin-5-yl)-[4,4′-bipiperidin]-1-yl)methyl)piperidin-1-yl)pyrimidin-4-yl)methoxy)phenyl)propan-2-yl)benzonitrile]	–	2350 ± 309
Cn1c(=O)n(C2CCC(=O)NC2=O)c2ccc(C3CCN(CC4CCN(C5CC6(CCN(c7nccc(COc8ccc(C(C)(C)c9cc(Cl)cc(C#N)c9)cc8)n7)CC6)C5)CC4)CC3)cc21 (centres unmarked) [Compound 108 trifluoroacetate, 3-chloro-5-(2-(4-((2-(2-(4-((4-(1-(2,6-dioxopiperidin-3-yl)-3-methyl-2-oxo-2,3-dihydro-1H-benzo[d]imidazol-5-yl)piperidin-1-yl)methyl)piperidin-1-yl)-7-azaspiro[3.5]nonan-7-yl)pyrimidin-4-yl)methoxy)phenyl)propan-2-yl)benzonitrile]	251	–
CCOc1c(Cl)cc(C(C)(C)c2ccc(OCc3ccnc(N4CCC5(CC4)CC(N4CCC(CN6CCC(c7ccc8c(c7)n(C)c(=O)n8C7CCC(=O)NC7=O)CC6)CC4)C5)n3)cc2)cc1C#N (centres unmarked) [Compound 109 trifluoroacetate, 3-chloro-5-(2-(4-((2-(2-(4-((4-(1-(2,6-dioxopiperidin-3-yl)-3-methyl-2-oxo-2,3-dihydro-1H-benzo[d]imidazol-5-yl)piperidin-1-yl)methyl)piperidin-1-yl)-7-azaspiro[3.5]nonan-7-yl)pyrimidin-4-yl)methoxy)phenyl)propan-2-yl)-2-ethoxybenzonitrile]	330	–
COc1c(Cl)cc(C(C)(C)c2ccc(OCc3ccnc(N4CCC5(CC4)CC(CN4CCC(c6ccc7c(c6)n(C)c(=O)n7C6CCC(=O)NC6=O)CC4)C5)n3)cc2)cc1C#N (centres unmarked) [Compound 113 trifluoroacetate, 3-chloro-5-(2-(4-((2-(2-((4-(1-(2,6-dioxopiperidin-3-yl)-3-methyl-2-oxo-2,3-dihydro-1H-benzo[d]imidazol-5-yl)piperidin-1-yl)methyl)-7-azaspiro[3.5]nonan-7-yl)pyrimidin-4-yl)methoxy)phenyl)propan-2-yl)-2-methoxybenzonitrile]	419	–
CN(CC1CCN(c2nccc(COc3ccc(C(C)(C)c4cc(Cl)cc(C#N)c4)cc3)n2)CC1)C1CCN(c2ccc3c(c2)n(C)c(=O)n3C2CCC(=O)NC2=O)CC1 (centres unmarked) [Compound 114 trifluoroacetate, 3-chloro-5-(2-(4-((2-(4-(((1-(1-(2,6-dioxopiperidin-3-yl)-3-methyl-2-oxo-2,3-dihydro-1H-benzo[d]imidazol-5-yl)piperidin-4-yl)(methyl)amino)methyl)piperidin-1-yl)pyrimidin-4-yl)methoxy)phenyl)propan-2-yl)benzonitrile]	665	–

Now from value to compound:

IC50 (22RV1 cells) [nM]	AUC(0-t) [1] [ng·h/mL]	Structure (SMILES)
955	–	Cn1c(=O)n(C2CCC(=O)NC2=O)c2cccc(C3CCN(CC4(F)CCN(C5CC6(CCN(c7nccc(COc8ccc(C(C)(C)c9cc(Cl)cc(C#N)c9)cc8)n7)CC6)C5)CC4)CC3)c21 (centres unmarked) [Compound 115 trifluoroacetate, 3-chloro-5-(2-(4-((2-(2-(4-((4-(1-(2,6-dioxopiperidin-3-yl)-3-methyl-2-oxo-2,3-dihydro-1H-benzo[d]imidazol-4-yl)piperidin-1-yl)methyl)-4-fluoropiperidin-1-yl)-7-azaspiro[3.5]nonan-7-yl)pyrimidin-4-yl)methoxy)phenyl)propan-2-yl)benzonitrile]
–	686 ± 336	CCOc1c(Cl)cc(C(C)(C)c2ccc(OCc3ccnc(N4CCC(CN5CCC6(CC5)CN(c5ccc7c(c5)n(C)c(=O)n7C5CCC(=O)NC5=O)C6)CC4)n3)cc2)cc1C#N (centres unmarked) [Compound 118 trifluoroacetate, 3-chloro-5-(2-(4-((2-(4-((2-(1-(2,6-dioxopiperidin-3-yl)-3-methyl-2-oxo-2,3-dihydro-1H-benzo[d]imidazol-5-yl)-2,7-diazaspiro[3.5]nonan-7-yl)methyl)piperidin-1-yl)pyrimidin-4-yl)methoxy)phenyl)propan-2-yl)-2-ethoxybenzonitrile]
–	1430 ± 209	COc1c(Cl)cc(C(C)(C)c2ccc(OCc3ccnc(N4CCC(CN5CCC(C6CCN(c7ccc(N8CCC(=O)NC8=O)cc7)CC6)CC5)CC4)n3)cc2)cc1C#N [Compound 120, 3-chloro-5-(2-(4-((2-(4-((1′-(4-(2,4-dioxotetrahydropyrimidin-1(2H)-yl)phenyl)-[4,4′-bipiperidin]-1-yl)methyl)piperidin-1-yl)pyrimidin-4-yl)methoxy)phenyl)propan-2-yl)-2-methoxybenzonitrile]
842	–	CCOc1c(Cl)cc(C(C)(C)c2ccc(OCc3ccnc(N4CC5(CCC(N6CCC(c7ccc8c(c7)n(C)c(=O)n8C7CCC(=O)NC7=O)CC6)CC5)C4)n3)cc2)cc1C#N (centres unmarked) [Compound 121 trifluoroacetate, 3-chloro-5-(2-(4-((2-(7-(4-(1-(2,6-dioxopiperidin-3-yl)-3-methyl-2-oxo-2,3-dihydro-1H-benzo[d]imidazol-5-yl)piperidin-1-yl)-2-azaspiro[3.5]nonan-2-yl)pyrimidin-4-yl)methoxy)phenyl)propan-2-yl)-2-ethoxybenzonitrile]
1010	–	Cn1c(=O)n(C2CCC(=O)NC2=O)c2ccc(C3CCN(C4CCC5(CC4)CN(c4nccc(COc6ccc(C(C)(C)c7cc(Cl)cc(C#N)c7)cc6)n4)C5)CC3)cc21 (centres unmarked) [Compound 122 trifluoroacetate, 3-chloro-5-(2-(4-((2-(7-(4-(1-(2,6-dioxopiperidin-3-yl)-3-methyl-2-oxo-2,3-dihydro-1H-benzo[d]imidazol-5-yl)piperidin-1-yl)-2-azaspiro[3.5]nonan-2-yl)pyrimidin-4-yl)methoxy)phenyl)propan-2-yl)benzonitrile]
576	–	Cn1c(=O)n(C2CCC(=O)NC2=O)c2cccc(C3CCN(CC4(F)CCN(C5CCN(c6nccc(COc7ccc(C(C)(C)c8cc(Cl)cc(C#N)c8)cc7)n6)CC5)CC4)CC3)c21 (centres unmarked) [Compound 124 trifluoroacetate, 3-chloro-5-(2-(4-((2-(4-((4-(1-(2,6-dioxopiperidin-3-yl)-3-methyl-2-oxo-2,3-dihydro-1H-benzo[d]imidazol-4-yl)piperidin-1-yl)methyl)-4-fluoro-[1,4′-bipiperidin]-1′-yl)pyrimidin-4-yl)methoxy)phenyl)propan-2-yl)benzonitrile]
